# Results as given in US20020137929A1, “1 - (3-heterocyclylphenyl) isothiourea, -isourea, -guanidine and -amidine herbicidal agents” (Intellectual Property Department, BASF Aktiengesellschaft, priority 1998, published 2002).
# Tests used:
# ECHCG (Barnyardgrass) = experiment: Postemergence herbicidal evaluation; assay type: in vivo, Echinochloa crus-galli; conditions: postemergence
# Outline: (§1)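 First, seedlings were raised for around two weeks. Next, test material in 50/50 acetone/water containing 0.5% TWEEN 20 was sprayed through a nozzle at 40 psi, equivalent to about 0.0156–0.500 kg/ha. Finally, after 4–5 weeks in the greenhouse, plants were rated 0–9.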
# CYPSE (Flatsedge) = experiment: Preemergence weed control under flooded paddy conditions; assay type: in vivo, Cyperus serotinus; conditions: rated 3-4 weeks after treatment
# Outline: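 Greenhouse paddy assay. Acetone/water (50/50 v/v) solutions dosed into flood water, equivalent to about 0.0313 to 0.500 kg/ha active ingredient, over seeds planted 0.5 cm deep in silt loam. Score: 0-9 visual, based on stand, vigor, malformation, size and chlorosis, 3 to 4 weeks after treatment.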
# [1] = test system: GLXMAW (Soybean, Williams); experiment: Postemergence herbicidal evaluation; assay type: in vivo, Glycine max, (L.) Merr. cv Williams; conditions: postemergence
# Outline: as §1
# ABUTH (Velvetleaf) = experiment: Postemergence herbicidal evaluation; assay type: in vivo, Abutilon theophrasti; conditions: postemergence
# Outline: as §1
# ORYSAT (Rice, Tebonnet) = experiment: Postemergence herbicidal evaluation; assay type: in vivo, Oryza sativa, (L.) Tebonnet; conditions: postemergence
# Outline: as §1
# GALAP (Galium) = experiment: Preemergence herbicidal evaluation; assay type: in vivo, Galium aparine; conditions: rated 4-5 weeks after treatment
# Outline: (§2)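 Scores (0–9) reflect visual comparison with control plants for stand, vigor, malformation, size and chlorosis. Compound was applied to the soil after sowing, before emergence, as an aqueous acetone spray (about 0.0156–0.500 kg/ha), and cups were kept in a greenhouse for 4–5 weeks.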
# [2] = test system: CHEAL (Lambsquarters, Common); experiment: Preemergence herbicidal evaluation; assay type: in vivo, Chenopodium album; conditions: rated 4-5 weeks after treatment
# Outline: as §2
# CASOB (Sicklepod) = experiment: Preemergence herbicidal evaluation; assay type: in vivo, Cassia obtusifolia; conditions: rated 4-5 weeks after treatment
# Outline: as §2
# AMBEL (Ragweed, Common) [3] = experiment: Preemergence herbicidal evaluation; assay type: in vivo, Ambrosia artemisifolia; conditions: rated 4-5 weeks after treatment
# Outline: as §2
# AMBEL (Ragweed, Common) [4] = experiment: Postemergence herbicidal evaluation; assay type: in vivo, Ambrosia artemisifolia; conditions: postemergence
# Outline: as §1
# ZEAMX (Corn, Field) = experiment: Postemergence herbicidal evaluation; assay type: in vivo, Zea mays; conditions: postemergence
# Outline: as §1
# [5] = test system: CHEAL (Lambsquarters, Common); experiment: Postemergence herbicidal evaluation; assay type: in vivo, Chenopodium album; conditions: postemergence
# Outline: as §1
compound,measurement,setting,value
"Cn1c(C(F)(F)F)cc(=O)n(-c2cc(N=C3SCC(=O)N3C3CCC3)c(Cl)cc2F)c1=O [Compound 168, 3-{4-Chloro-5-[(3-cyclobutyl-4-oxo-2-thiazolidinylidene)amino]-2-fluorophenyl}-1-methyl-6-(trifluoromethyl)-2,4(1H,3H)-pyrimidinedione]",Herbicidal rating ECHCG,ECHCG (Barnyardgrass); rate 0.0156 kg/ha,0.0
same,Herbicidal rating ECHCG,ECHCG (Barnyardgrass); rate 0.0313 kg/ha,0.0
same,Herbicidal rating ECHCG,ECHCG (Barnyardgrass); rate 0.0625 kg/ha,4.0
same,"herbicidal effect rating, CYPSE",CYPSE (Flatsedge); 0.0313 kg/ha,0.0
same,"herbicidal effect rating, CYPSE",CYPSE (Flatsedge); 0.0625 kg/ha,0.0
same,"herbicidal effect rating, CYPSE",CYPSE (Flatsedge); 0.1250 kg/ha,0.0
same,Herbicidal rating GLXMAW,[1]; rate 0.0156 kg/ha,5.5
same,Herbicidal rating GLXMAW,[1]; rate 0.0313 kg/ha,6.5
same,Herbicidal rating GLXMAW,[1]; rate 0.0625 kg/ha,7.0
same,Herbicidal rating ABUTH,ABUTH (Velvetleaf); rate 0.0156 kg/ha,9.0
same,Herbicidal rating ABUTH,ABUTH (Velvetleaf); rate 0.0313 kg/ha,9.0
same,Herbicidal rating ABUTH,ABUTH (Velvetleaf); rate 0.0625 kg/ha,9.0
same,Herbicidal rating ORYSAT,"ORYSAT (Rice, Tebonnet); rate 0.0156 kg/ha",1.0
same,Herbicidal rating ORYSAT,"ORYSAT (Rice, Tebonnet); rate 0.0313 kg/ha",1.5
same,Herbicidal rating ORYSAT,"ORYSAT (Rice, Tebonnet); rate 0.0625 kg/ha",2.5
same,Preemergence herbicidal rating GALAP,GALAP (Galium); 0.0156 kg/ha,0.0
same,Preemergence herbicidal rating GALAP,GALAP (Galium); 0.0313 kg/ha,0.0
same,Preemergence herbicidal rating GALAP,GALAP (Galium); 0.0625 kg/ha,0.0
same,Preemergence herbicidal rating GALAP,GALAP (Galium); 0.1250 kg/ha,0.0
same,Preemergence herbicidal rating GALAP,GALAP (Galium); 0.2500 kg/ha,3.0
same,Preemergence herbicidal rating CHEAL,[2]; 0.0156 kg/ha,3.0
same,Preemergence herbicidal rating CHEAL,[2]; 0.0313 kg/ha,9.0
same,Preemergence herbicidal rating CHEAL,[2]; 0.0625 kg/ha,9.0
same,Preemergence herbicidal rating CHEAL,[2]; 0.1250 kg/ha,9.0
same,Preemergence herbicidal rating CHEAL,[2]; 0.2500 kg/ha,9.0
same,Preemergence herbicidal rating CASOB,CASOB (Sicklepod); 0.0156 kg/ha,0.0
same,Preemergence herbicidal rating CASOB,CASOB (Sicklepod); 0.0313 kg/ha,0.0
same,Preemergence herbicidal rating CASOB,CASOB (Sicklepod); 0.0625 kg/ha,0.0
same,Preemergence herbicidal rating CASOB,CASOB (Sicklepod); 0.1250 kg/ha,0.0
same,Preemergence herbicidal rating CASOB,CASOB (Sicklepod); 0.2500 kg/ha,0.0
same,Preemergence herbicidal rating AMBEL,"AMBEL (Ragweed, Common) [3]; 0.0156 kg/ha",0.0
same,Preemergence herbicidal rating AMBEL,"AMBEL (Ragweed, Common) [3]; 0.0313 kg/ha",0.0
same,Preemergence herbicidal rating AMBEL,"AMBEL (Ragweed, Common) [3]; 0.0625 kg/ha",0.0
same,Preemergence herbicidal rating AMBEL,"AMBEL (Ragweed, Common) [3]; 0.1250 kg/ha",0.0
same,Preemergence herbicidal rating AMBEL,"AMBEL (Ragweed, Common) [3]; 0.2500 kg/ha",5.0
same,Herbicidal rating AMBEL,"AMBEL (Ragweed, Common) [4]; rate 0.0156 kg/ha",3.0
same,Herbicidal rating AMBEL,"AMBEL (Ragweed, Common) [4]; rate 0.0313 kg/ha",9.0
same,Herbicidal rating AMBEL,"AMBEL (Ragweed, Common) [4]; rate 0.0625 kg/ha",9.0
same,Herbicidal rating ZEAMX,"ZEAMX (Corn, Field); rate 0.0156 kg/ha",4.5
same,Herbicidal rating ZEAMX,"ZEAMX (Corn, Field); rate 0.0313 kg/ha",4.5
same,Herbicidal rating ZEAMX,"ZEAMX (Corn, Field); rate 0.0625 kg/ha",7.0
same,Herbicidal rating CHEAL,[5]; rate 0.0156 kg/ha,2.0
same,Herbicidal rating CHEAL,[5]; rate 0.0313 kg/ha,3.0
same,Herbicidal rating CHEAL,[5]; rate 0.0625 kg/ha,4.0
